Values after ≈ are worked out from the molar mass of the structure shown.
Tests used:
SKOV-3 (human ovarian) = test: In vitro antitumor effect against human tumor cell lines, SRB assay; type: cell-based; settings: 48 hours, SK-OV-3 cells
Procedure: (§1) In vitro antitumor effect against human tumor cell lines.
(§2) a. Human solid tumor cell lines, A549(non-small lung cell), SKMEL-2(melanoma), HCT-15(colon), SKOV-3(ovarian) and XF-498(CNS) were cultured in 5% CO2, incubators using the RPMI 1640 media containing 10% FBS at 37° C., while with transfer-culturing successively once or twice per week. Cell cultures were dissolved in a solution of 0.25% trysin and 3 mmol CDTA PBS(−) to separate the cells sticked on the culture media.
(§3) b. 5×10^3˜2×10^4 cells were added into each well of 96-well plate and cultured in 5% CO2, incubator at 37° C. for 24 hours.
(§4) c. Each sample drug was dissolved in a little DMSO and diluted with the used medium to a prescribed concentration for experiment, while the final concentration of DMSO was adjusted below 0.5%.
(§5) d. Medium of each well cultured for 24 hours as above b. was removed by aspiration. Each 200 μl of drug samples prepared in c. was added into each well and tine wells were cultured for 48 hours. Tz (time zero) plates were collected at the point of time drugs were added.
(§6) e. According to the SRB assay method, cell fixing with TCA, staining with 0.4% SRB solution, washing with 1% acetic acid and elution of dye with 10 mmol Tris solution were carried out on Tz plates and culture-ended plates, and then, OD values were measured at 520 nm.
(§7) a. Time zero (Tz) value was determined with measuring the SRB protein value at the point of time drugs were added.
(§8) b. Control value (C) was determined with the OD value of an well untreated with drug.
(§9) c. Drug-treated test value (T) was determined with the OD value of drug-treated well.
(§10) d. Effects of drugs were estimated with growth stimulation, net growth inhibition and net killing calculated from Tz, C and T values.
(§11) e. If T≧Tz, cellular response function was calculated by 100×(T−Tz)/(C−Tz), and, if T≦Tz, by 100×(T−Tz)/Tz.

XF-498 (human CNS) = test: as above; type: cell-based; settings: 48 hours, XF-498 cells
Procedure: as §1, §2, §3, §4, §5, §6, §7, §8, §9, §10, §11

SKMEL-2 (human melanoma) = test: as above; type: cell-based; settings: 48 hours, SK-MEL-2 cells
Procedure: as §1, §2, §3, §4, §5, §6, §7, §8, §9, §10, §11

HCT-15 (human colon) = test: as above; type: cell-based; settings: 48 hours, HCT 15 cells
Procedure: as §1, §2, §3, §4, §5, §6, §7, §8, §9, §10, §11

[1] = system: A549 (human non-small lung cell); test: as above; type: cell-based; settings: 48 hours, A549 cells
Procedure: as §1
A. Tumor cell lines : A549 (human non-small lung cell)
as §2, §3, §4, §5, §6, §7, §8, §9, §10, §11

Topoisomerase II = test: Inhibition effects against the Topoisomerase II activities (DNA relaxation assay, DNA cleavage assay); type: biochemical; settings: supercoiled pBR322 DNA substrate, 30 minutes at 37° C.
Procedure: Inhibition effects against the Topoisomerase II activities
The present compounds were tested for inhibition of Topoisomerase II activity by means of the relaxation assay using supercoiled pBR322 DNA as the substrate. Topo II and a sample inhibitor were added to a reaction system (50 mmol Tris-HCl, pH 7.5, 50 mmol KCl, 20 mmol MgCl2, 0.5 mmol EDTA, 2 mmol ATP, 60 μg/ml BSA) containing supercoiled pBR322 DNA and reacted for 30 minutes at 37° C. Then, a quarter by volume of Stop buffer (5% SDS, 50 mmol EDTA, 30% glycerol, 0.1 mg/ml xylene cyanol, 0.1 mg/ml BPB) was added to the reaction system to stop the reaction. The resulting product went through electrophoresis on 0.7% agarose gel and was stained by ethidium bromide solution. Mobility of DNA was measured under ultraviolet rays.
Topo II and a sample inhibitor were added to cleavage buffer (30 mmol Tris-HCl, pH 7.5, 60 mmol KCl, 10 mmol MgCl2, 15 mmol β-mercaptoethanol, 30 μg /ml BSA) containing supercoiled pBR322 DNA and allowed to react for 30 minutes at 37° C. Then, […] by 1% was added to the reaction system to stop the reaction. Then, proteinase K was added thereto up to the concentration of 50 μg/ml and allowed to react for 30 minutes at 56° C. The reaction product was treated with phenol/chloroform to purify DNA, and the obtained DNA was loaded on agarose gel electrophoresis, transferred to nitrocellulose membrane and hybridized with probe DNA labelled with radioisotope. Then, the nitrocellulose membrane was covered with an X-ray film and exposed to be sensitized and developed, whereby the degree of cleavage of DNA was measured.

[2] = system: P388 (mouse lymphoid neoplasma cell); test: In vitro antitumor effects against animal leukemia cells, dye exclusion assay; type: cell-based; settings: 48 hours, trypan blue dye exclusion, read-out: P388, concentration showing 50% cell growth inhibition (IC50)
Procedure: In vitro antitumor effects against animal leukemia cells.
Tumor cell lines: P388 (mouse lymphoid neoplasma cell)
B. Method: Dye Exclusion Assay.
1) The concentration of P388 cells being cultured in RPMI 1640 media containing 10% FBS was adjusted to 1×10^6 cells/ml.
2) Each sample drug of a concentration diluted in the ratio of log dose was added into cell culture media and cultured at 37° C. for 48 hours in […] incubator, and then viable cell number was measured by dye exclusion test using trypan blue.

[3] = Acute toxicity test (LD50), Litchfield-Wilcoxon method; settings: mouse, in vivo, ip; male ICR mice, observed 14 days
Procedure: Acute Toxicity Test (LD50):
a) Method: Litchfield-Wilcoxon Method.
6-week-old ICR mice(male 30±2.0 g) were fed freely with solid feed and water at room temperature, 23±1° C. and at humidity 60±5%. Sample drugs were injected into the abdominal cavities of mice. Each group comprised 6 mice. Observed during 14 days, external appearances and life or death thereof were recorded, and also, visible lesions were observed from dead mice by dissection. LD50 value was calculated by Litchfield-wilcoxon method.

IC50 (μg/ml), inhibition of Topoisomerase II activity (Topoisomerase II) | SMILES | ED50 SK-OV-3 (SKOV-3 (human ovarian)) | ED50 XF-498 (XF-498 (human CNS)) | ED50 SK-MEL-2 (SKMEL-2 (human melanoma)) | ED50 HCT 15 (HCT-15 (human colon)) | ED50 A 549 [1] | IC50 [2] | LD50 at 14 days [3]
 | N.N.[Cl][Pt][Cl] [Cisplatin, reference compound] | 0.71 µg/mL | 0.77 µg/mL | 0.71 µg/mL | 3.03 µg/mL | 0.81 µg/mL |  | 
3 µg/mL | COc1cccc(NC(=O)OCc2cc(N)cc(Nc3c4ccccc4nc4ccccc34)c2)c1 [Example 2, [3-(acridin-9-yl)amino-5-amino]benzyl N-(3-methoxyphenyl)carbamate] | 0.68 µg/mL (≈ 1.46 µM) | 0.71 µg/mL (≈ 1.53 µM) |  | 0.97 µg/mL (≈ 2.09 µM) |  |  | 
3 µg/mL | COc1cc(NC(=O)OCc2cc(N)cc(Nc3c4ccccc4nc4ccccc34)c2)cc(OC)c1 [Example 3, [3-(acridin-9-yl)amino-5-amino]benzyl N-(3,5-dimethoxyphenyl)carbamate] |  |  |  |  |  |  | 
5 µg/mL | COc1cc(NC(=O)OCc2cc(N)cc(Nc3c4ccccc4nc4ccccc34)c2)cc(OC)c1OC [Example 4, [3-(acridin-9-yl)amino-5-amino]benzyl N-(3,4,5-trimethoxyphenyl) carbamate] | 0.19 µg/mL (≈ 0.362 µM) | 0.23 µg/mL (≈ 0.438 µM) | 0.20 µg/mL (≈ 0.381 µM) | 0.24 µg/mL (≈ 0.458 µM) | 0.19 µg/mL (≈ 0.362 µM) |  | 
1 µg/mL | Nc1cc(COC(=O)Nc2cccc(Cl)c2)cc(Nc2c3ccccc3nc3ccccc23)c1 [Example 14, [3-(acridin-9-yl)amino-5-amino]benzyl N-(3-chlorophenyl) carbamate] |  |  |  |  |  |  | 
3 µg/mL | COc1cc(NC(=S)OCc2cc(N)cc(Nc3c4ccccc4nc4ccccc34)c2)cc(OC)c1 [Example 18, [3-(acridin-9-yl)amino-5-amino]benzyl N-(3,5-dimethoxyphenyl)thiocarbamate] |  |  |  |  |  |  | 
5 µg/mL | COc1cc(NC(=S)OCc2cc(N)cc(Nc3c4ccccc4nc4ccccc34)c2)cc(OC)c1OC [Example 19, [3-(acridin-9-yl)amino-5-amino]benzyl N-(3,4,5-trimethoxyphenyl)thiocarbamate] |  |  |  |  |  |  | 
3 µg/mL | COc1cccc(NC(=O)OCc2cccc(Nc3c4ccccc4nc4ccccc34)c2)c1 [Example 20, 3-(acridin-9-yl)aminobenzyl N-(3-methoxyphenyl) carbamate] |  |  |  |  |  |  | 
3 µg/mL | COc1cc(NC(=O)OCc2cccc(Nc3c4ccccc4nc4ccccc34)c2)cc(OC)c1 [Example 21, 3-(acridin-9-yl)aminobenzyl N-(3,5-dimethoxyphenyl) carbamate] |  |  |  |  |  |  | 
5 µg/mL | COc1cc(NC(=O)OCc2cccc(Nc3c4ccccc4nc4ccccc34)c2)cc(OC)c1OC [Example 22, 3-(acridin-9-yl)aminobenzyl N-(3,4,5-trimethoxyphenyl) carbamate] |  |  |  |  |  |  | 
5 µg/mL | CC=Nc1cc(CO)cc(Nc2c3ccccc3nc3ccccc23)c1 [Example 35, 3-(acridin-9-yl)amino-5-(ethylideneamino)phenylmethanol] |  |  |  |  |  |  | 
3 µg/mL | CCC=Nc1cc(CO)cc(Nc2c3ccccc3nc3ccccc23)c1 [Example 36, 3-(acridin-9-yl)amino-5-(propylideneamino)phenylmethanol] |  |  |  |  |  |  | 
5 µg/mL | CCCC=Nc1cc(CO)cc(Nc2c3ccccc3nc3ccccc23)c1 [Example 37, 3-(acridin-9-yl)amino-5-(butylideneamino)phenylmethanol] | 0.93 µg/mL (≈ 2.52 µM) | 0.36 µg/mL (≈ 0.974 µM) | 0.89 µg/mL (≈ 2.41 µM) | 0.35 µg/mL (≈ 0.947 µM) | 0.90 µg/mL (≈ 2.44 µM) |  | 
0.5 µg/mL | C[C@H](N)C(=O)Nc1cc(CO)cc(Nc2c3ccccc3nc3ccccc23)c1 [Example 45, N-[3-(acridin-9-yl)amino-5-(hydroxymethyl)phenyl](2S)-2-aminopropaneamide] | 0.21 µg/mL (≈ 0.543 µM) | 0.88 µg/mL (≈ 2.28 µM) | 0.25 µg/mL (≈ 0.647 µM) | 0.86 µg/mL (≈ 2.23 µM) | 0.01 µg/mL (≈ 0.0259 µM) |  | 
3 µg/mL | N[C@@H](Cc1ccccc1)C(=O)Nc1cc(CO)cc(Nc2c3ccccc3nc3ccccc23)c1 [Example 46, N-[3-(acridin-9-yl)amino-5-(hydroxymethyl)phenyl](2S)-2-amino-3-phenylpropaneamide] |  |  |  |  |  |  | 

SMILES | IC50 (μg/ml), inhibition of Topoisomerase II activity (Topoisomerase II) | ED50 SK-OV-3 (SKOV-3 (human ovarian)) | ED50 XF-498 (XF-498 (human CNS)) | ED50 SK-MEL-2 (SKMEL-2 (human melanoma)) | ED50 HCT 15 (HCT-15 (human colon)) | ED50 A 549 [1] | IC50 [2] | LD50 at 14 days [3]
Nc1cc(COC(=O)Nc2ccccc2)cc(Nc2c3ccccc3nc3ccccc23)c1 [Example 1, [3-(acridin-9-yl)amino-5-amino]benzyl N-phenylcarbamate] | 1 µg/mL | 1.15 µg/mL (≈ 2.65 µM) | 0.44 µg/mL (≈ 1.01 µM) | 0.49 µg/mL (≈ 1.13 µM) | 0.57 µg/mL (≈ 1.31 µM) | 0.96 µg/mL (≈ 2.21 µM) | 0.9 µg/mL (≈ 2.07 µM) | 
Cc1cc(C)cc(NC(=O)OCc2cc(N)cc(Nc3c4ccccc4nc4ccccc34)c2)c1 [Example 6, [3-(acridin-9-yl)amino-5-amino]benzyl N-(3,5-dimethylphenyl) carbamate] | 3 µg/mL | 0.36 µg/mL (≈ 0.778 µM) | 0.37 µg/mL (≈ 0.8 µM) | 0.40 µg/mL (≈ 0.865 µM) | 0.33 µg/mL (≈ 0.713 µM) | 0.72 µg/mL (≈ 1.56 µM) | 0.8 µg/mL (≈ 1.73 µM) | 
Nc1cc(COC(=O)Nc2cc(F)cc(F)c2)cc(Nc2c3ccccc3nc3ccccc23)c1 [Example 12, [3-(acridin-9-yl)amino-5-amino]benzyl N-(3,5-difluorophenyl) carbamate] | 0.5 µg/mL |  |  |  |  |  | 1.2 µg/mL (≈ 2.55 µM) | 150 mg/kg
